SMILES strings stand for the structures.

One assay has as its system MV4-11 cells. Put plainly: CellTiter-Blue cell viability assay. In kind it is cell-based. As to conditions: Homo sapiens, 72 h, HDAC8-dependent line, Figure 7B. The method, then:
(§1) All cell lines were purchased from DSMZ (Braunschweig, Germany). The cell lines were regularly tested to exclude mycoplasma contamination and authenticated. […] Media were supplemented with 10% fetal calf serum (FCS), 10 units/mL penicillin, 10 μg/mL streptomycin, and 2 mM L-glutamine (all Gibco, Thermo Fisher Scientific).
(§2) To determine the IC50 of the selected compounds on the cell lines, the CellTiter-Blue cell viability assay (Promega) was performed. For this, cells were seeded in 96-well flat-bottom plates at a cell density of 10 000 cells/well. Cells were treated in triplicate with the compound of interest at various concentrations or with 10 μM Bortezomib (S1013; Selleck Chemicals, Houston, TX), as a positive control. […] Plates were measured using a GloMax plate reader (Promega), and IC50 values were determined by nonlinear regression using GraphPad Prism version 9.1.1 (GraphPad Software, Inc.), and the data are reported as mean values ± the standard error of the mean.
A general note: Resazurin is reduced to fluorescent resorufin, in cell work by metabolically active cells.

The next assay has as its system MOLM-13 cells. Briefly: CellTiter-Blue cell viability assay. In kind it is cell-based. The following applies: Homo sapiens, 72 h, HDAC8-dependent line, Figure 7B. The method, then: as §1, §2
The subject of the next assay is OCI-AML3 cells. Briefly: CellTiter-Blue cell viability assay. The assay is classed as cell-based. As to conditions: Homo sapiens, OCI-AML-3; 72 h, HDAC8-dependent line, Figure 7B. The method, then: as §1, §2
The next assay concerns the target HDAC4 (Homo sapiens, UniProt P56524). Put plainly: HDAC4 biochemical assay. As to conditions: preincubation 1 h, 1 nM HDAC4. The method, then: The enzyme activity assay was performed in assay buffer [25 mM Tris-HCl (pH 8.0), 50 mM NaCl, and 0.001% (v/v) Pluronic F-68] in black half-area 96-well microplates (Greiner Bio-One). […] The reaction was initiated by the addition of 20 μM Boc-Lys(TFA)-AMC (Bachem). […] The deacetylated substrate was cleaved with 0.42 mg/mL trypsin to release fluorescent 7-amino-4-methylcoumarin (AMC), which was detected with a microplate reader (PHERAstar FS […]) with fluorescence excitation at 360 nm and emission at 460 nm. IC50 values were calculated by generating dose–response curves in GraphPad Prism 6 and fitting those to a four-parameter logistic model.

Chain of HDAC4 (P56524 whole entry, species assumed): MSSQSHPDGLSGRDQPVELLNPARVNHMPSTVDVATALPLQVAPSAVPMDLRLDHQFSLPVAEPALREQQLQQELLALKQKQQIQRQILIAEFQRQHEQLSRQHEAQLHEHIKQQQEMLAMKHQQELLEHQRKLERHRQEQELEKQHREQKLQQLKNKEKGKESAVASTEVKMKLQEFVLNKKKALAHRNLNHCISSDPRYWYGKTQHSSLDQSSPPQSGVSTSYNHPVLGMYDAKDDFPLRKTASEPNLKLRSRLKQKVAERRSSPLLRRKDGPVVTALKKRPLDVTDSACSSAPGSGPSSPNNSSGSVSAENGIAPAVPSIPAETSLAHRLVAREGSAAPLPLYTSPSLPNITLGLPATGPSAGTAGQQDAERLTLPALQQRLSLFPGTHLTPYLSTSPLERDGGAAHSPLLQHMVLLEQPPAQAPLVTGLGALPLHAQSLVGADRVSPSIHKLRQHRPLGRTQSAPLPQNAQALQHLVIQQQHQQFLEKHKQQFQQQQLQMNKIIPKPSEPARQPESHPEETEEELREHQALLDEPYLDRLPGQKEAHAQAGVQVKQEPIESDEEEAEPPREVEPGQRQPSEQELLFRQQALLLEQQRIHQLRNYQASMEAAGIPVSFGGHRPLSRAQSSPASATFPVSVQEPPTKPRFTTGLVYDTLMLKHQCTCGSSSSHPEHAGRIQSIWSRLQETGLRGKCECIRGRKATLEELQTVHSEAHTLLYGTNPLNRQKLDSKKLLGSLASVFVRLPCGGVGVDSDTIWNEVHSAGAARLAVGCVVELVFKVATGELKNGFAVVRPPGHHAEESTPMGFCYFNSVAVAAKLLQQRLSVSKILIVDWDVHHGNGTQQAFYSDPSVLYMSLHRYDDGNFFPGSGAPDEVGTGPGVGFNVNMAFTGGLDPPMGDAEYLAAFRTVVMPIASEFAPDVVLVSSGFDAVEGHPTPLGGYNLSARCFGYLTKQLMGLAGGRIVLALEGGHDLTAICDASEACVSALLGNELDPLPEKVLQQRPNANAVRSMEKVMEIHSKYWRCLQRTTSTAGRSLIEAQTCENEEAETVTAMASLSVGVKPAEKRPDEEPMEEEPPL

For the molecule `C#Cc1c[n+](C)ccc1NC(=O)CC(=O)N1Cc2ccccc2C1.[I-]` [compound 3, 3-Ethynyl-4-[3-(isoindolin-2-yl)-3-oxopropanamido]-1-methylpyridin-1-ium Iodide], the IC50 (as a rule, the concentration that gives 50% inhibition) in the assay on MV4-11 cells stood at 8.23 ± 0.12 µM; in the assay on MOLM-13 cells it was 7.08 ± 1.07 µM; with OCI-AML3 cells it was 27.2 ± 5.86 µM; at HDAC4, 23.1 µM.

(Values after paper PMC10788917 (Journal of Medicinal Chemistry, 2023).)
